We go through 2 molecules from patent US6379900B1, “Compositions and methods of use of 8-nitroguanine” (Conceptual Mindworks, Inc., priority 2000, dated 2002).

Bounds are passed on as bounds.

For data set [1] the following is noted: cited from earlier work.
Data set [2] concerns supercoiled pUC19 plasmid DNA. The data set can be described thus: Conversion of supercoiled plasmid DNA to open circles (single-stranded DNA breaks) by peroxynitrite. In kind it is biochemical, E coli. As for the experimental part: E coli strain JM109 containing plasmid DNA (pUC19) was grown in 2 ml of M9 media to which 24 μl of 2.5 mg/ml ampicillin was added. Following incubation for approximately 8 hours, the culture was transferred to 50 ml of M9 media containing ampicillin. The following day, 25 ml of the overnight culture was used to inoculate 500 ml of M9 media containing ampicillin. When the optical density at 600 nm of the bacterial culture reached between 0.6 and 0.8 O.D., 50 mg of chloramphenicol, dissolved in 1 ml of absolute ethanol, was added to the culture and the culture was incubated overnight. The next morning, cells were harvested by centrifugation. Plasmid DNA was isolated using a Promega Wizard MaxiPrep Kit. Cells were resuspended in resuspension solution, and lysis buffer was added. The buffer was neutralized after 20 min, the solution was centrifuged and the supernatant collected. To the supernatant was added 0.5 volumes of isopropanol, which caused the DNA to precipitate. […] After removing the fine particles the DNA was ready for use. Its concentration was measured by absorbance at 260 nm (0.2 OD units=10 μg/ml). Plasmid DNA was analyzed by electrophoresis in TAE buffer using a 1% agarose gel. […] DNA was analyzed as described above. The effect of peroxynitrite concentration on the conversion of supercoils to open circles was determined at pH 5, 6, 7, 8, and 9. […] DNA was analyzed as described above. […]

A further data set deals with Calf Thymus DNA. The experiment in a line: Viscosity studies of DNA exposed to peroxynitrite (depurination and strand breakage). In kind it is biochemical. The text has this:
As the degree of DNA damage increases, the likelihood of two single stranded breaks occurring within a few bases on the opposite strands of double-stranded DNA also increases. Double-stranded DNA breaks result in a decrease in the length of the DNA molecule, detectable as a decreased viscosity of linear double-stranded DNA. This method was also used to assay for depurination and DNA strand breakage. Stock solutions of Sigma Calf Thymus DNA were made by dissolving DNA in 0.1 M Na2HPO4, pH 8, 0.1 M sodium cacodylate, pH 5, 0.1 M Tris, pH 8, and 0.1 M borate, pH 8. The final volume for all viscosity experiments was 40 ml and the DNA concentration was 420 μg/ml. […] The data was recorded as the relative viscosity and specific viscosity of the solution.

With `O=NOO` [peroxynitrous acid], the pKa (usually the negative logarithm of the acid dissociation constant) in data set [1] (acid form of peroxynitrite) is recorded as 6.8. In data set [1] (pH 7.4), the half life is 1.9 s.

For `O=NOO` [peroxynitrite], in data set [2] (minimum observed under the conditions of the study, constant peroxynitrite concentration), the “reduction in DNA supercoiling” value is at least 45%. Also, the “conversion of supercoiled plasmid DNA to open circles” value in data set [2] (pH 4 to 10, 30 minutes at room temperature) is reported as “effective at converting supercoiled plasmid DNA to open circles at all pHs”. In the data set on Calf Thymus DNA (Arrhenius analysis), the “activation energy of the depurination reaction (formation of single-stranded DNA nicks)” value worked out at 917 Joules/mole. The “viscosity of DNA solution with time of exposure” value with Calf Thymus DNA (all pH values, 37° C., within the first two hours of exposure) is reported as “Viscosity decreased”.
